Columns and labels:
Settings in all cases: three weeks after application, 0 untreated control, 100 complete kill
ECHOR (seed) = experiment: Assay for herbicidal activity, paddy pots: ECHOR; format: in vivo, Echinochloa crus-galli var. oryzicola
Text: (§1) To evaluate herbicidal activity against the paddy weeds in the paddy rice (ORYSA: Oryza sativa L.), the herbicidal activity of the compounds of the invention was compared to that of the compound No.109 (compound A) disclosed in U.S. Pat. […] The paddy weeds tested were ECHOR (Echinochloa crus-galli var. oryzicola), SCPJU (Scirpus juncoides ROXB), MOOVA (Monochoria vaginalis […] (Cyperus serotinus ROTTB), and SAGPY (Sagittaria pygmaea MTQ). The vessels employed were plastic pots having an area of 140 cm^2 and filled with a sandy loam soil containing 1.2% organic matter (pH 6).

CYPSE (tuber) = experiment: Assay for herbicidal activity, paddy pots: CYPSE; format: in vivo, Cyperus serotinus ROTTB
Text: as §1

MOOVA (seed) = experiment: Assay for herbicidal activity, paddy pots: MOOVA; format: in vivo, Monochoria vaginalis PRESL
Text: as §1

SCPJU (seed) = experiment: Assay for herbicidal activity, paddy pots: SCPJU; format: in vivo, Scirpus juncoides ROXB
Text: as §1

SAGPY (tuber) = experiment: Assay for herbicidal activity, paddy pots: SAGPY; format: in vivo, Sagittaria pygmaea MTQ
Text: as §1

Row | Compound | ECHOR (seed) herbicidal activity, visual percentage grading (ECHOR (seed); 0.016 kg/ha) [%] | ECHOR (seed) herbicidal activity, visual percentage grading (ECHOR (seed); 0.063 kg/ha) [%] | ECHOR (seed) herbicidal activity, visual percentage grading (ECHOR (seed); 0.250 kg/ha) [%] | ECHOR (seed) herbicidal activity, visual percentage grading (ECHOR (seed); 1.000 kg/ha) [%] | ECHOR (seed) herbicidal activity, visual percentage grading (ECHOR (seed); 4.000 kg/ha) [%] | CYPSE (tuber) herbicidal activity, visual percentage grading (CYPSE (tuber); 0.016 kg/ha) [%] | CYPSE (tuber) herbicidal activity, visual percentage grading (CYPSE (tuber); 0.063 kg/ha) [%] | CYPSE (tuber) herbicidal activity, visual percentage grading (CYPSE (tuber); 0.250 kg/ha) [%] | CYPSE (tuber) herbicidal activity, visual percentage grading (CYPSE (tuber); 1.000 kg/ha) [%] | CYPSE (tuber) herbicidal activity, visual percentage grading (CYPSE (tuber); 4.000 kg/ha) [%] | MOOVA (seed) herbicidal activity, visual percentage grading (MOOVA (seed); 0.016 kg/ha) [%] | MOOVA (seed) herbicidal activity, visual percentage grading (MOOVA (seed); 0.063 kg/ha) [%] | MOOVA (seed) herbicidal activity, visual percentage grading (MOOVA (seed); 0.250 kg/ha) [%] | MOOVA (seed) herbicidal activity, visual percentage grading (MOOVA (seed); 1.000 kg/ha) [%] | MOOVA (seed) herbicidal activity, visual percentage grading (MOOVA (seed); 4.000 kg/ha) [%] | SCPJU (seed) herbicidal activity, visual percentage grading (SCPJU (seed); 0.016 kg/ha) [%] | SCPJU (seed) herbicidal activity, visual percentage grading (SCPJU (seed); 0.063 kg/ha) [%] | SCPJU (seed) herbicidal activity, visual percentage grading (SCPJU (seed); 0.250 kg/ha) [%] | SCPJU (seed) herbicidal activity, visual percentage grading (SCPJU (seed); 1.000 kg/ha) [%] | SCPJU (seed) herbicidal activity, visual percentage grading (SCPJU (seed); 4.000 kg/ha) [%] | further results
1 | Cc1ccc(C2=NOC(C)(COCc3cccc(F)c3)C2)s1 (centres unmarked) [EXAMPLE 3, 5-(3-fluorobenzyl)oxymethyl-5-methyl-3-(2-methylthiophene-5-yl)-1,2-isoxazoline] | 20 | 55 | 100 | 100 | 100 | 0 | 40 | 90 | 100 | 100 | 20 | 50 | 60 | 80 | 100 | 0 | 20 | 40 | 60 | 100 | SAGPY (tuber) herbicidal activity, visual percentage grading (SAGPY (tuber); 0.016 kg/ha): 0%; SAGPY (tuber) herbicidal activity, visual percentage grading (SAGPY (tuber); 0.063 kg/ha): 0%; SAGPY (tuber) herbicidal activity, visual percentage grading (SAGPY (tuber); 0.250 kg/ha): 0%; SAGPY (tuber) herbicidal activity, visual percentage grading (SAGPY (tuber); 1.000 kg/ha): 50%; SAGPY (tuber) herbicidal activity, visual percentage grading (SAGPY (tuber); 4.000 kg/ha): 40%
2 | COc1ccsc1C1=NOC(C)(COCc2c(F)cccc2F)C1 (centres unmarked) [EXAMPLE 21, 5-(2,6-difluorobenzyl)oxymethyl-5-methyl-3-(4-methoxythiophene-5-yl)-1,2-isoxazoline] | 0 | 100 | 100 | 100 | 100 | 0 | 40 | 60 | 80 | 100 | 0 | 100 | 100 | 100 | 100 | 0 | 100 | 100 | 100 | 100 | SAGPY (tuber) herbicidal activity, visual percentage grading (SAGPY (tuber); 0.016 kg/ha): 0%; SAGPY (tuber) herbicidal activity, visual percentage grading (SAGPY (tuber); 0.063 kg/ha): 0%; SAGPY (tuber) herbicidal activity, visual percentage grading (SAGPY (tuber); 0.250 kg/ha): 0%; SAGPY (tuber) herbicidal activity, visual percentage grading (SAGPY (tuber); 1.000 kg/ha): 0%; SAGPY (tuber) herbicidal activity, visual percentage grading (SAGPY (tuber); 4.000 kg/ha): 0%

Source: patent US6838416B2, “Herbicidal 5-benzyloxymethyl-1,2-isoxazoline derivatives” (Korea Research Institute of Chemical Technology, priority 2000, dated 2005)
